Patent US8007833B2, “Method of reducing infections and/or air embolisms associated with vascular access procedures” (Biolife, L.L.C., priority 2009, dated 2011)

Experiments:
Assay in all cases: Biofilm Eradication with Calgary Biofilm Device
Assay type in all cases: cell-based
[1] = system: S. aureus
Excerpt: (§1) VI. Biofilm Eradication with Calgary Biofilm Device [Innovotech]
(§2) Minimum Inhibitory Concentration (MIC) Breakpoints

[2] = system: S. epidermidis
Excerpt: as §1, §2

[3] = system: P. aeruginosa
Excerpt: as §1, §2
(§3) Minimum Bactericidal Concentration (MBC) Breakpoints
(§4) Minimum Biofilm Eradication Concentration (MBEC) Breakpoints
(§5) Minimum Concentration that Kills Biofilms with Log R of 3 or Higher

[4] = system: MRS. aureus
Excerpt: as §1, §3, §4, §5

[5] = system: MRS. epidermidis
Excerpt: as §1, §3, §4, §5

With Gentamicin the “Minimum Inhibitory Concentration (MIC) Breakpoints” value (“Minimum Inhibitory Concentration” for short) [1] was <8 µg/mL, the “Minimum Inhibitory Concentration” value [2] was <8 µg/mL and the “Minimum Bactericidal Concentration (MBC) Breakpoints” value (“Minimum Bactericidal Concentration” for short) ([3]; P. aeruginosa) was <8 µg/mL. The “Minimum Inhibitory Concentration” value ([3]; P. aeruginosa) was <8 µg/mL, the “Minimum Biofilm Eradication Concentration (MBEC) Breakpoints” value ([3]; P. aeruginosa biofilm) was >1024 µg/mL and the “Minimum Concentration that Kills Biofilms with Log R of 3 or Higher” value ([3]; P. aeruginosa biofilm) was 64 ug/mL. For the same substance, the “Log 10 Reduction” value ([3]; P. aeruginosa biofilm, at 256 ug/mL, 128 ug/mL and 64 ug/mL) was “greater than three”, the “Minimum Bactericidal Concentration” value ([4]; MRS. aureus) was <16 µg/mL and the “Minimum Biofilm Eradication Concentration (MBEC) Breakpoints” value ([4]; MRS. aureus biofilm) was 1024 µg/mL. For the same substance, the “Minimum Concentration that Kills Biofilms with Log R of 3 or Higher” value ([4]; MRS. aureus biofilm) was 1024 ug/mL, the “Log 10 Reduction” value ([4]; MRS. aureus biofilm, at only 1024 ug/mL) was “greater than 3” and the “Minimum Bactericidal Concentration” value ([5]; MRS. epidermidis) was <8 µg/mL. For the same substance, the “Minimum Biofilm Eradication Concentration (MBEC) Breakpoints” value ([5]; MRS. epidermidis biofilm) was >1024 µg/mL, the “Minimum Concentration that Kills Biofilms with Log R of 3 or Higher” value ([5]; MRS. epidermidis biofilm) was >1024 ug/mL and the “Log 10 Reduction” value ([5]; MRS. epidermidis biofilm, at any concentration) was ≤ 3.
